SMILES | pKa (acidic group) | pKa (basic group)
CC1(C)S[C@H]2C(C(=O)[O-])[NH+]=C(CCCC([NH3+])C(=O)[O-])N2C1C(=O)O (some centres not stated) | 3.1 | 
Cc1cc(O)n(-c2nc(O)cc(C)[nH+]2)n1 | 5.23 | 
O=C1CC[C@H]2N1CC[C@H]1c3ccccc3CCN12 |  | 4.89
O=C(O)c1cc[n+](O)cc1 | -0.48 | 
c1coc(CNc2ncnc3[nH]ncc23)c1 |  | 4.01
CN(C)c1ncc([N+](=O)[O-])s1 |  | 0.48
Nc1ncc(S(=O)(=O)c2ccccc2)s1 |  | 1.79
NCc1ccc(N)cc1 |  | 10
N#CC(C#N)=C(c1ccccc1)C(C#N)C#N | 2.3 | 
CN(O)Cc1ccccc1 |  | 4.6
NC(=O)[C@H]1CC(=O)N[C@@H]1C(=O)O | 3 | 
COC(=O)c1ccc(O)c([N+](=O)[O-])c1 | 5.4 | 
Cc1c(C(=O)[O-])sc2cc(Cn3ccnc3)ccc12 |  | 6.35
Cc1cc(C[NH+](C)C)c(O)c(C[NH+](C)C)c1 | 6.45 | 
O=C(O)CCCc1ccccc1 | 4.78 | 
Cc1ccc2c(ccn2C)c1 |  | -2.15
N#CC(C#N)=C(C#N)C(C#N)C#N | 1.9 | 
C[NH+](C)CCCNc1c2ccccc2nc2c(Cl)ccc([N+](=O)[O-])c12 |  | 5
COc1ccc2c(c1)CC(C)N2 (configuration not stated) |  | 6.2
CCCCNc1ccnc2cccc([N+](=O)[O-])c12 |  | 7.18
C[C@H]1CC[C@H](C(=O)O)CC1 | 4.89 | 
CC1/C(=N/O)C[C@@H]2N=C(c3ccccc3)O[C@@]13[C@@H]1OC(=O)[C@H](C)[C@H]1CC[C@]23C (some centres not stated) |  | 4.7
CN1C=C(C#N)C=CC1 |  | 2.7
Oc1cccc2cncnc12 | 8.65 | 3.41

SMILES | pKa (acidic group) | pKa (basic group)
Oc1ccc2cccc(Br)c2c1 | 8.94 | 
OCCN1CCOCC1 |  | 7.18
O=C([O-])C(CO)NCc1ccccc1O (configuration not stated) | 10.4 | 8.22
Cc1cc(OS(=O)(=O)[O-])c2oc(-c3cc4ccc(O)cc4oc3=O)nc2c1 | 6.8 | 
Nc1ccc(Cl)cc1 |  | 3.96
COc1ccc2c3c1O[C@@H]1C(=O)CC[C@]4(O)[C@H](C2)N(C)CC[C@@]314 |  | 8.6
CC1NCCc2c1[nH]c1ccc(N)cc21 (configuration not stated) | 16 | 
Cc1cc([N+](=O)[O-])ccc1NN=C(C#N)C#N | 5.5 | -0.74
O=C(O)c1ccc(=O)oc1 | 3.26 | 
Cc1cncc(C)n1 |  | 2.11
[O-]c1ccc(O)cc1 | 11.6 | 
C[C@H]1CCC2CC[C@H](C)N21 |  | 11.7
Nc1ccnc2ccc3ncccc3c12 |  | 7.3
Nc1cccc2c([N+](=O)[O-])cccc12 |  | 2.8
Cc1ccc(/N=C/N(C)C)cc1 |  | 9.21
CCN(CC)CCN=C(c1ccccc1C)c1ccccc1C |  | 8.8
COc1cc(S(C)=O)ccc1-c1cn2cccnc2n1 (configuration not stated) |  | 3.7
Oc1ccc(O)cc1 | 9.93 | 
CC1=NS(=O)(=O)c2cc(Cl)ccc2N1 | 8.62 | 
O=C([O-])[C@@H](P)CC[C@H](P)C(=O)O | 4.41 | 
Cn1ncc2c(N)nc(Cl)nc21 |  | 2.69
Cc1ccc(O)c(CN(C)C)c1 | 11.2 | 8.68
OCCNC(=S)S | 2.82 | 
Cc1ccc(CCN)cc1 |  | 9.78

SMILES | pKa (acidic group) | pKa (basic group)
CC(C)[C@H](C(=O)O)N1C[C@H](NC(=O)Cc2ccccc2)C1=O | 3.48 | 
CN(C)C(=O)CC(=O)c1ccncc1 | 7.75 | 
Cc1nc2c(O)ccc(O)c2n1C | 9.75 | 6.47
c1c[nH]cn1 | 14.5 | 7.07
Oc1nc2ccccc2c[nH+]1 | 1.3 | 
O=C([O-])CCc1c[nH]cn1 |  | 7.55
NC(=S=O)c1ccccc1 |  | 0.8
C=CC(C)Nc1ccccc1 (configuration not stated) |  | 4.57
COC(=O)[C@H](Cc1c[nH]cn1)NC(C)=O |  | 6.3
OCCNc1ccccc1 |  | 4.09
NCCCCCCC#CC#CCCC(=O)[O-] |  | 10.7
Nc1cccc2[nH+]cccc12 |  | 0.97
CS(=O)(=O)Nc1ccc(CC([NH3+])C(=O)O)cc1 (configuration not stated) | 3.15 | 
O=Cc1ccc(O)cc1Cl | 6.6 | 
COc1ccc(NC=S)cc1 | 11.7 | 
O=C(Oc1cccc([N+](=O)[O-])c1)C1c2ccccc2-c2ccccc21 | 9.84 | 
NNC(=O)c1ccc[nH+]c1 |  | 1.64
N#CC(C#N)=C(C#N)NC(C#N)=C(C#N)C#N | 2.1 | 
Oc1onc(-c2ccccc2)c1Br | 2.3 | 
Cc1cc2nc3ccc(N(C)C)cc3[nH+]c2cc1N |  | 0.2
Cc1cc(C(O)=C(C#N)C#N)cc(C)c1O | 2.55 | 
CC(=O)c1ccc(CC(=O)O)s1 | 3.8 | 
Cc1ccc(C2NCCS2)cc1 (configuration not stated) |  | 5.35
O=C(O)c1ccccc1Cl | 2.95 | 

SMILES | pKa (acidic group) | pKa (basic group)
O=C([O-])CN(CC(=O)O)Cc1cc(Cl)cc(C[NH+](CC(=O)[O-])CC(=O)O)c1O | 2.2 | 
CC(=O)CC(=O)CC(C)C | 9.07 | 
Cn1cnc(=O)c(-c2ccccc2)c1 |  | 1.99
O=C1CCCC(=O)N1 | 11.4 | 
O=C(O)c1ccc([N+](=O)[O-])cc1O | 1.83 | 
O=C1[C@H]2C[C@H](CN3CCCC=C23)[C@@H]2CCCCN12 |  | 9.7
[NH3+][C@@H](CCC(=O)O)C(=O)[O-] | 4.46 | 
CC(=O)c1ccc(S)cc1 | 5.33 | 
Cc1cc2c(C)ccnc2c2ncccc12 |  | 5.71
Nc1ccc(S(=O)(=O)Nc2cccnc2)cc1 | 7.89 | 3
CC(=O)n1ccnc1Cc1ncc[nH]1 |  | 6.6
c1ccc(-c2ccnc3c2ccc2c(-c4ccccc4)ccnc23)cc1 |  | 4.84
Nc1ccc2c(c1)Cc1cc(O)ccc1-2 |  | 4.88
NCCCCCCN |  | 11
CN(C)CCN |  | 9.53
CCCCNCC(=O)Nc1c(C)cccc1C |  | 8.04
Oc1nccc[nH+]1 | 2.24 | 
Nc1nc(NCO)nc(NCO)n1 |  | 4.65
COc1c(C)cccc1C(=O)O | 3.84 | 
[O-][n+]1ccc(O)cc1 | 5.76 | 
CN(C)CC(CSC#N)SC#N (configuration not stated) |  | 6.1
N#CCCNN |  | 5.91
NCCCc1ccccc1O |  | 9.51
Nc1n[nH]c(N)c1/N=N/c1ccccc1 |  | 3.43

SMILES | pKa (acidic group) | pKa (basic group)
C=CCC(C)(O)CN(CC)CC (configuration not stated) |  | 9.71
O=C1CC(=O)CS(=O)C1 | 3.12 | 
COc1ccc2ccc(OC)c(N3CCOCC3)c2c1N1CCOCC1 |  | 13
CN(C)c1ccc2nc3ccc(N)cc3nc2c1 |  | 6.6
O=C(O)Cn1cnnn1 | 2.27 | 
CCNCl |  | 0.93
Nc1ccc2[nH]c(Cc3ccccc3)[nH+]c2c1 |  | 3.3
Oc1ccc2ccnnc2c1 | 7.56 | 3.31
CNC |  | 11
Cc1nnc(C)n1O | 6.5 | 
C(CSCCc1nnn[nH]1)SCCc1nnn[n-]1 | 5.64 | 
C/C=C/C1=C(O)C(=O)c2ccccc2C1=O | 4.78 | 
Cc1ccc([P+](c2ccc(C)cc2)(c2ccc(C)cc2)C2c3ccccc3-c3ccccc32)cc1 | 9.64 | 
C[N+](C)(C)Cc1ccccc1O | 8.71 | 
O=C(O)c1ccc2ccccc2[nH+]1 | 1.79 | 
Cc1cc(O)n(C2CC[NH+](C)CC2)n1 | 6.63 | 
CCOC(=O)c1cc(-c2ccccc2)nnc1NCC[NH+]1CCOCC1 |  | 1.5
CN(C)CC#N |  | 4.5
CNc1ccc(O)cc1 |  | 6
CC(C)C(O[C@H]1O[C@@H](C(=O)O)[C@H](O)[C@@H](O)[C@@H]1O)C(C)C | 3.89 | 
O=C(O)C[Se]c1ccc([N+](=O)[O-])cc1 | 3.46 | 
Cc1coc(C)c1C(=O)O | 4.55 | 
C[C@H](O)C(=O)C1=Nc2c(nc(N)[nH+]c2O)NC1 | 1.45 | 
CC(=O)C(=O)CC(=O)C(C)=O | 4.68 | 

SMILES | pKa (acidic group) | pKa (basic group)
C=CC#CCC(=O)O | 3.41 | 
Nc1ccc(-c2ccc([NH3+])cc2)cc1 |  | 3.66
OCc1nc2ccccc2[nH]1 | 12.1 | 4.82
O=[N+]([O-])c1n[nH]c(-n2cnc(Cl)n2)n1 | 1.59 | 
CC(C)(C)N1C2CCCC21 (configuration not stated) |  | 9.22
Cc1ccc2ccccc2c1C(=O)O | 3.11 | 
N[C@@H]1C[C@H]2CCCC[C@@H]2C[C@@H]1[NH3+] |  | 6.36
C=CCN1CCOCC1 |  | 7.05
Nc1cc(Br)cc(Br)c1 |  | 2.49
CN(C(=O)c1ccccc1)c1ccncc1 |  | 4.68
CN(C)c1ccccc1 |  | 5.1
C=C(C)/C=C(/C(=O)O)c1ccc([N+](=O)[O-])cc1 | 4.4 | 
CC(O)C(C(=O)O)c1ccc(C2CCCCC2)cc1 (configuration not stated) | 4.21 | 
Cn1nc(-c2ccccc2)cc/c1=N\CCN1CCOCC1 |  | 10.2
Cc1ccc(N[N+](=O)[O-])cc1 | 4.88 | 
C[C@@]12CC(=O)N[C@]1(CCC(=O)O)C(=O)NC2=O | 4.4 | 
Oc1onc2c1CCNCC2 |  | 9.6
C[Si](C)(CN)O[Si](C)(C)CN |  | 10.3
CC(=O)CC(=S)Nc1ccccc1 | 7.5 | 
Cn1c[nH+]cc1C[C@H]([NH3+])C(=O)O | 1.84 | 
OCC1CC2CCN1CC2 (configuration not stated) |  | 10.8
CN(C)c1nc(/N=N/O)nn1C | 5.94 | 
O=C(O)[C@H]1O[C@H]1C(=O)[O-] | 3.92 | 
N[C@H]1CC(=O)N(CCCC[C@H]([NH3+])C(=O)[O-])C1=O |  | 6

SMILES | pKa (acidic group) | pKa (basic group)
NC(=O)CCCc1cccnc1 |  | 5.33
[O-]c1ccnc2cccnc12 |  | 10
CCCN1CC(O[Si](C)(C)C)C1 |  | 8.89
CC/N=C(\N=[N+]=[N-])c1ccccc1O | 9.4 | 
OCCC[C@H]1CC[C@@H]2CCCN12 |  | 11.2
COC(=O)CC(=O)c1cccnc1 | 8.98 | 
NCCCCc1ccccc1 |  | 10.4
c1ccc(CSc2ccncc2)cc1 |  | 5.41
O=C(c1ccc([N+](=O)[O-])cc1)c1cc[nH]n1 | 11.7 | 
O=C(O)C1(C(=O)O)CC1 | 1.92 | 
CC(C)(/C=C/C(=O)O)c1cc([N+](=O)[O-])ccc1O | 4.26 | 
OC(c1ccccc1)(c1ccccc1)c1ccccn1 |  | 3.9
CNC(=O)c1ccncc1 |  | 3.8
CCn1cncn1 |  | 2.39
CNc1nc(C)nc2c1cnn2C |  | 5
CCCCNc1ccccc1 |  | 5.11
NCC[n+]1cc(Br)c2ccccc2c1 |  | 6.71
CC(=O)[C@@H]1C[C@@H]1C(=O)O | 4.19 | 
CN(C)C[C@@H]1[C@H](CO)[C@H]2C=C[C@@H]1C2 |  | 9.54

From the pKa sets of Baltruschat and Czodrowski (2020)
